Where two headings read alike, the source gives them in different places. Square brackets hold non-standard residues; d marks the D form. Peptide text beside a SMILES is read from it. * marks the point of attachment. Dolaproine = CO[C@@H]([C@@H]1CCCN1)[C@@H](C)C(=O)O; Dil = CC[C@H](C)[C@H](NC)[C@@H](CC(=O)O)OC; X1 = C[C@@H](N*)[C@@H](O)c1ccccc1; NMeV = CN[C@H](C(=O)O)C(C)C

The subject of experiment [1] is Daudi, Ramos, Raji and Karpas 299 cells. Description: Relative potency of unconjugated drugs versus doxorubicin across cell lines. In kind it is cell-based, human. The method, then:
(§1) Cytotoxicity assays. Cytotoxicity was measured by Alamar Blue (Biosource International) dye reduction assay according to manufacturers directions (Nakayama et al. Journal Of Immunological Methods 1997; 204:205-208). Briefly, a 40% solution (w/v) of Alamar Blue was freshly prepared in complete media just prior to adding to cultures. The Alamar Blue solution was added at cell densities of 10^5 cells/ml for the Ramos, Raji, and Karpas cell lines, and at a cell density of 4×10^5 cells/ml for the Daudi cell line. After 92 h following drug exposure. Alamar Blue solution was added to cells to constitute 10% culture volume. The cells were incubated for 4 h and dye reduction measured on a Fusion HT fluorescent plate reader (Packard Instruments, Meriden, Conn.).
(§2) Cell sensitivity to unconjugated drugs. The cells were initially evaluated for relative sensitivity to doxorubicin and MMAE. Cells were exposed to drugs for 2 h, washed, replated in fresh media and incubated for an additional 92 h. Four h. prior to harvest, cells were incubated with Alamar Blue, a reducible dye that provides readout of cell viability (Nakayarna et al., 1997).

In experiment [2] the test system is Daudi cells. Description: Alamar Blue cytotoxicity assay, Daudi cells. Format: cell-based, human. On the procedure: as §1, §2
(§3) Sensitivity of cells to ADCs. […] As described above, 4 h prior to harvest, cells were incubated with Alamar Blue and cell viability assessed.

Experiment [3] relates to Ramos cells. The experiment can be described thus: Alamar Blue cytotoxicity assay, Ramos cells. Format: cell-based, human. On the procedure:
as §1, §2, §3
Background: Alamar Blue is a resazurin reagent that responds to reducing activity.

The subject of experiment [4] is Raji cells. The experiment can be described thus: Alamar Blue cytotoxicity assay, Raji cells. Format: cell-based, human. The method, then:
as §1, §2, §3

Experiment [5] deals with Karpas 299 cells. Description: Alamar Blue cytotoxicity assay, CD20-negative Karpas 299 cells. In kind it is cell-based, human. The method, then: as §1, §2, §3
The test system of experiment [6] is Ramos cells. The experiment can be described thus: Confocal microscopy for mAb/ADC trafficking. Conditions: 5 ug/ml, 37 C, 1, 4 and 24 h.
From the text: Microscopy for mAb/ ADC trafficking. […] At the designated times cells were harvested by centrifugation, fixed and permeabilized by paraformaldehyde/saponin (Cytofix/Cytoperm™ Buffer, BD PharMingen, San Diego, Calif.). After washing with the Perm/Wash™ buffer (BD PharMingen) and blocking with goat IgG, cells were stained with a goat anti-human IgG Fc_specific FITC conjugate (Jackson ImmunoResearch Laboratories, Inc., West Grove, Pa.). The localization of fluorescence signals was then visualized using a Deltavision confocal fluorescence microscope equipped with digital analysis software.
Internalization of the mAb-drug conjugate.
The test system of experiment [7] is CD20-positive cells. The experiment can be described thus: Cytotoxicity of ADCs, summary statement. In kind it is cell-based, human. Conditions: following brief exposure. On the procedure: as §1, §3
Experiment [8] concerns Ramos NHL cells. The experiment can be described thus: Subcutaneous Ramos NHL xenograft model. In kind it is in vivo, SCID mice. Conditions: intraperitoneal, every 4 days for 3 injections, 3 mg/kg.
Method: For the localized non Hodgkin's lymphoma model, 2×10^6 Ramos NHL cells were implanted into the right flank of SCID mice. […] Treatment consisted of intraperitoneal injections of mAb or ADC every 4 days for 3 injections. Tumor size was determined using the formula (L×W^2)/2.
SCID mice were implanted with 5×10^6 Ramos cells into the flank and the tumor size in each group of 5 animals was allowed to progress to an average size of 100 mm^3 before therapy with mAb or ADCs was initiated. Treatment consisted of intraperitoneal injections of mAb or ADC every 4 days for 3 injections using 1 and 3 mg/kg/injection.
In experiment [9] the test system is Ramos cells. Description: Induction of apoptosis, Annexin V-FITC / propidium iodide staining. Conditions: 5 μg/ml, after 24 hr of incubation.
Method: Selective induction of Apoptosis. […] At the designated times cells were removed from cultures and stained with Annexin V-FITC and propidium iodide (PI) as described in Materials and Methods. The range of apoptotic cells (Annexin V^+/PI^−) and of dead cells (Annexin V^+/PI^+) was determined by flow cytometric analysis of each population.
Induction of Apoptosis. […] At designated time points cells were removed from cultures and the degrees of apoptosis and cell death were determined by Annexin V binding to the cell surface and loss of propidium iodide (PI) inclusion respectively (FIG. 5).
Where [10] appears, read: ADC, 2 h binding, washed, additional 92 h, Daudi.
Setting [11] is: ADC, 2 h binding, washed, additional 92 h, Raji.
Setting [12] is: ADC, 2 h binding, washed, additional 92 h, Karpas.

With `CC[C@H](C)[C@@H]([C@@H](CC(=O)N1CCC[C@H]1[C@H](OC)[C@@H](C)C(=O)N[C@H](C)[C@@H](O)c1ccccc1)OC)N(C)C(=O)[C@@H](NC(=O)[C@H](C(C)C)N(C)C)C(C)C` [Auristatin E], the “times more potent than doxorubicin” value in experiment [1] is listed as greater than 50 times.

The IC50 is the concentration that inhibits the measured activity by half. Turning to `COc1cccc2c1C(=O)c1c(O)c3c(c(O)c1C2=O)C[C@@](O)(C(=O)CO)C[C@@H]3O[C@H]1C[C@H](N)[C@H](O)[C@H](C)O1` [Doxorubicin, doxorubicin, reference compound], the IC50 in [2] (Homo sapiens, unconjugated drug, 2 h exposure, washed, additional 92 h, Daudi (CD20+), read-out: IC50) is 140 nM; in experiment [3] (Homo sapiens, unconjugated drug, 2 h exposure, washed, additional 92 h, Ramos (CD20+), read-out: IC50) it was 225 nM; in experiment [4] (Homo sapiens, unconjugated drug, 2 h exposure, washed, additional 92 h, Raji (CD20+), read-out: IC50), 200 nM; in [5] (Homo sapiens, KARPAS-299, unconjugated drug, 2 h exposure, washed, additional 92 h, Karpas (CD20-), read-out: IC50) it was 650 nM.

As for `CC[C@H](C)[C@@H]([C@@H](CC(=O)N1CCC[C@H]1[C@H](OC)[C@@H](C)C(=O)N[C@H](C)[C@@H](O)c1ccccc1)OC)N(C)C(=O)[C@@H](NC(=O)[C@@H](NC)C(C)C)C(C)C` [MMAE, monomethyl Auristatin E] (H-[NMeV]V[Dil][Dolaproine]-X1), the “Activity Ratio MMAE/Doxorubicin” value in [2] (Daudi (CD20+)) came to 215.4; in experiment [3] (Ramos (CD20+)) it was 225.0; in experiment [4] (Raji (CD20+)), 57.1; in experiment [5] (Karpas (CD20-)), 216.7. The 50% inhibitory concentration (IC50) in [2] (Homo sapiens, Daudi) was determined as 0.65 nM; in experiment [3] (Homo sapiens, Ramos), 1 nM; in experiment [4] (Homo sapiens, Raji), 3.5 nM; in experiment [5] (Homo sapiens, KARPAS-299), 3 nM.

Regarding Rituxan-vcDox [reference compound], the IC50 is greater than 50 µg/mL in [2] (setting [10]); greater than 50 µg/mL in [3] (ADC, 2 h binding, washed, additional 92 h, Ramos); greater than 50 µg/mL in [4] (setting [11]); greater than 50 µg/mL in experiment [5] (setting [12]). In experiment [4] (Raji cells, up to 50 ug/ml), the “toxicity at the highest levels tested” value is “did not affect significant toxicity”. In addition, the “cellular localization (equatorial section)” value in experiment [6] was “remained primarily on the surface”.

As for “Rituximab-valine-citrulline-monomethyl Auristatin E [Rituxan-vcMMAE]”, the IC50 in experiment [2] (setting [10]) is 2 µg/mL; in [3] (ADC on Ramos cells (FIG. 4B)), 0.045 µg/mL; in experiment [4] (ADC on Raji cells (FIG. 4A)) it was 1.4 µg/mL; in experiment [4] (setting [11]), 1.5 µg/mL; in experiment [5] (setting [12]), greater than 50 µg/mL; in experiment [7], 0.05 µg/mL. The “delay in tumor growth” value in [8] is “significant delay in tumor growth”. In addition, the “cellular localization (equatorial section)” value in experiment [6] is “localized to the cell interior within 4 h”. Besides, the “percentage of apoptotic cells” value in experiment [9] turned out to be 19%. In addition, in experiment [9], the “percentage of dead cells” value was found to be 60%.

Source of the values: US20050180972A1, “Anti-CD20 antibody-drug conjugates for the treatment of cancer and immune disorders” (priority 2002, published 2005).
